Test results taken from paper PMC12796733 (The Journal of Biological Chemistry, 2025).

Columns and labels:
Format in all cases: binding
[1] = target: T1, Shp (Streptococcus pyogenes, UniProt Q06A48); experiment: isothermal titration calorimetry; conditions: PBS pH 7.4, 5% DMSO, 25 °C; one set of sites
T1 construct: E. coli BL21(DE3)

[2] = target: T2, NEAT2 (Streptococcus pyogenes, UniProt Q99YA0); experiment: isothermal titration calorimetry; conditions: PBS pH 7.4, 5% DMSO, 25 °C; one set of sites
T2 construct: gene shr; NEAT2 domain, Ala970-Thr1129 of 1275-residue Shr; E. coli BL21(DE3)

[3] = target: T2, NEAT2; experiment: differential scanning calorimetry; conditions: PBS; 1 mg/ml protein
[4] = target: T3, Linker-NEAT1 (Streptococcus pyogenes, UniProt Q99YA0); experiment: isothermal titration calorimetry; conditions: PBS pH 7.4, 5% DMSO, 25 °C; one set of sites
T3 construct: gene shr; linker + NEAT1 domain, Ser294-Gly502 of 1275-residue Shr; E. coli BL21(DE3)

[5] = target: T3, Linker-NEAT1; experiment: differential scanning calorimetry; conditions: PBS; 1 mg/ml protein

T2 sequence (Q99YA0 970-1129): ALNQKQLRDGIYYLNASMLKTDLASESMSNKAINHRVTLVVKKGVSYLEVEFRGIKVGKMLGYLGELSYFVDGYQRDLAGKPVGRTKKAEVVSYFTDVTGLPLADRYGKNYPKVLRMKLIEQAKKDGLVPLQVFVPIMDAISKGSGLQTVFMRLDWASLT
T3 sequence (Q99YA0 294-502): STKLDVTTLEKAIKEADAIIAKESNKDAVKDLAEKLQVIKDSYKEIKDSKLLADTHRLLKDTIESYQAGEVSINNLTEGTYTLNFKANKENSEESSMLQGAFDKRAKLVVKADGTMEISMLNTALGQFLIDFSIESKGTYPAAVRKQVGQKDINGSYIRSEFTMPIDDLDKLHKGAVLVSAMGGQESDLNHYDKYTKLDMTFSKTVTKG
T1 sequence (Q06A48 entry or part of it): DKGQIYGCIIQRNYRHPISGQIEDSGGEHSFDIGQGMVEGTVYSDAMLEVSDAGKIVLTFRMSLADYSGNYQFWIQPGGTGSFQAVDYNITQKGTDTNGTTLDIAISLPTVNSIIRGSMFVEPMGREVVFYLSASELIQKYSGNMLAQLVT

heme
Kd [1]: < 0.00081 µM
Kd [2]: 0.0127 ± 0.0103 µM
Tm with heme (apo 58.1 °C) [3]: 64.0 °C
Kd [4]: 0.032 ± 0.0234 µM
Tm with heme (apo 34.6 °C) [5]: 41.1 °C
